According to ChEMBL document CHEMBL1159243, “Chemical and biological investigation of the polar constituents of the starfish Luidia clathrata, collected in the Gulf of Mexico” (1995):

Key:
Bacillus subtilis = assay: Antimicrobial activity against Bacillus subtilis at 50 ug/disk after 24 to 72 hrs; type: functional; settings: read-out: IZ
Staphylococcus aureus = assay: Antimicrobial activity against Staphylococcus aureus at 50 ug/disk after 24 to 72 hrs; type: functional; settings: read-out: IZ

What does the source list for `CC(C)[C@@H](O)CC[C@@H](C)[C@H]1C[C@H](OS(=O)(=O)O)[C@H]2[C@@H]3C[C@@H](O)[C@@]4(O)C[C@@H](O)CC[C@]4(C)[C@H]3CC[C@@]21C`?
zone of inhibition at 50 µg/disc (Bacillus subtilis): 3 mm; zone of inhibition at 50 µg/disc (Staphylococcus aureus): 1 mm

Which results are given for `C[C@H](CO)CCC[C@@H](C)[C@H]1[C@@H](O)[C@H](O)[C@H]2[C@@H]3[C@H](O)[C@@H](O)[C@H]4C[C@@H](O)CC[C@]4(C)[C@H]3CC[C@]12C`?
zone of inhibition at 50 µg/disc (Bacillus subtilis): 2 mm; zone of inhibition at 50 µg/disc (Staphylococcus aureus): 1 mm
